Measurements: PMC9867837 (Cancer letters, 2022)
pIC50, pKd: −log10 of the molar value.

Tests used:
[1] = target: T1, Stat1:Stat3 DNA-binding activity (Mus musculus, UniProt P42227); assay: EMSA of Stat1:Stat3 DNA-binding activity in nuclear extracts of EGF-stimulated NIH3T3/hEGFR; format: biochemical; conditions: Fig. 1C, hSIE probe, 30 min
T1 construct: endogenous in cells; host or cells: EGF-stimulated NIH3T3/hEGFR fibroblasts (nuclear extract)
Description: Details are presented in Supplementary Information, “Methods”. […]
min, prior to incubation with the radiolabeled probe for 30 min at 30 °C and subjecting to EMSA analysis.
(§1) In another case, the nuclear extract was pre-incubated with the radiolabeled probe for 30 min at 30 °C prior to incubation with increasing concentration of H182 at room temperature for 30 min and subjecting to EMSA analysis. Bands corresponding to Stats DNA- binding activities were scanned and quantified using ImageJ and plotted as a percentage of control (vehicle) against the concentration of the inhibitor, from which the IC50 values were derived .

[2] = target: T2, purified recombinant Stat3 (rStat3) (Homo sapiens, UniProt P40763); assay: Isothermal titration calorimetry (ITC); format: binding
T2 construct: made in house; host or cells: E. coli BL21(DE3)
Description: The ITC experiment was carried out as previously described. Details are provided in Supplementary Information, “Methods”. […]
1.2.10. Isothermal titration calorimetry (ITC)
The ITC experiment was carried out as previously described with some modification using Malvern Panalytical MicroCal PEAQ-ITC (United Kingdom). Studies were done at 25 °C. Briefly, H182, previously suspended in 100 % DMSO were diluted in 20 mM HEPES, 150 mM KCl buffer so the final DMSO was 5 %. To avoid buffer mismatch, Stat3 in HEPES buffer was diluted in HEPES buffer with 5% DMSO final concentration. Three hundred microliter (300 μL) aliquots of 3.0 μM Stat3 w ere placed in the cell and titrated with 250 μM H182. Titrations took place by injecting 2 μL H182 in a 2.5 min injection for the titration peak to return to the baseline. The K D was calculated using the MicroCal PEAQ-ITC analysis […]
software and Prism GraphPad software (San Diego, CA), using the one-site model. Control experiments were carried out by titration H182 into buffer, buffer into Stat3, and buffer into buffer. […]
DMSO (control) was added, and then immediately, cells were imaged with a Canon Powershot A640 digital camera under a phase contrast with the Zeiss Axiovert 200 inverted microscope at 10X magnification and noted as the zero time-point. Following culture for 22 h to allow cells to migrate into the denuded area, the culture was then imaged again at the same field that was marked on the plate.
1.2.12. Annexin V binding/apoptosis and flow cytometric analysis
For apoptosis analysis, annexin V/propidium iodide (PI) staining was performed. Briefly, cells in culture and untreated (DMSO, control) or treated with H182 were harvested and stained with FITC -annexin V (Apoptosis Detection Kit), according to manufacturer’s instructions (BD Biosciences, San Jose, CA). […]
1.2.13. Assessment of Physicochemical Properties
Solubility, human (HLM) and mouse liver microsomal (MLM), and plasma stability studies were performed by Eurofins Cerep Panlabs and Eurofin Discovery Services (www.eurofins.com/PharmaDiscovery), while

pYStat3C468A = target: T3, pYStat3C468A (Homo sapiens, UniProt P40763, C468A); assay: EMSA with purified mutant pYStat3C468A; format: biochemical
T3 construct: made in house; host or cells: E. coli BL21(DE3) TKB1 (inducible tyrosine kinase)
Description: This construct was used to generate the mutants, Stat3C328A, Stat3C426A, Stat3C468A, and Stat3C542S, as described in detail in Supplementary Information “Methods”.
The expression of un-phosphorylated and tyrosine phosphorylated His-tagged recombinant wtStat3 and mutant Stat3 proteins in BL21 (DE3) bacterial cells is described in detail in Supplementary Information “Methods”.
Given the MS data, we conducted site-directed mutagenesis analysis for the effects of Cys mutations (Cys-to-Ala or Cys-to-Ser mutations) on the inhibitory activities or potencies of the compounds. […] Purified, phosphorylated wild-type (wt)Stat3, and phosphorylated mutants, Stat3C328A, Stat3C426A, Stat3C468A, and Stat3C542S protein samples of equal amounts were pre-incubated with or without 3 μM H182 for 30 min at room temperature prior to incubation with the radiolabeled hSIE probe that binds Stat3 and subjecting to EMSA analysis. […] Focusing on the C426 and C468, we next conducted dose-response studies for effects of H182 on Stat3C426A and Stat3C468A. […] Equal proteins used in the DNA-binding assay/EMSA analysis are shown by SDS-PAGE Coomassie staining (Fig. 3B, lower). […]
as §1, with “derived . […]” for “derived .”
These studies were performed as previously reported using the v-Src -transformed NIH3T3/v-Src fibroblasts [1 -5] . […] Luciferase activity was normalized to total protein concentration of cell lysate, which was determined by Bradford assay (Bio-Rad, Hercules, CA) . […]

[3] = target: T4, norepinephrine transporter (NET) (Homo sapiens, UniProt P23975); assay: CEREP SafetyScreen44, norepinephrine transporter; format: binding
T4 construct: Eurofins-CEREP (SafetyScreen44 panel)
T4 sequence (P23975 whole entry): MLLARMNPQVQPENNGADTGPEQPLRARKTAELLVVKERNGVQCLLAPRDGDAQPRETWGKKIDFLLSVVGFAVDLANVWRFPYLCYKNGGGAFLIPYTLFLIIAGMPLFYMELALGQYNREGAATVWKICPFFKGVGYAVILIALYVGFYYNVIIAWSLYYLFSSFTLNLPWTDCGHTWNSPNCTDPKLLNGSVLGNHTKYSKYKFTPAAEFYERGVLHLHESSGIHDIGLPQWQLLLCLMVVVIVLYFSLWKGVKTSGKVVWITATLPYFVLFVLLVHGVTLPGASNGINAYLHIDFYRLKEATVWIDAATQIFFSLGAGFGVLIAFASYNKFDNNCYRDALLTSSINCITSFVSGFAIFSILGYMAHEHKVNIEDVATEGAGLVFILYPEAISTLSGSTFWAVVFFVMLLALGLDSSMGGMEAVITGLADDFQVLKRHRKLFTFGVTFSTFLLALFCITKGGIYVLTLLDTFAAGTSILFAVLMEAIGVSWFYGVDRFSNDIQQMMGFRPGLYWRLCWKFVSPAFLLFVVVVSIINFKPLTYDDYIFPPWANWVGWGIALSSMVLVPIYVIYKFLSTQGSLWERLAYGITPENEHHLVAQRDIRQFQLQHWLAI

T3 sequence (P40763 127-711 C468A): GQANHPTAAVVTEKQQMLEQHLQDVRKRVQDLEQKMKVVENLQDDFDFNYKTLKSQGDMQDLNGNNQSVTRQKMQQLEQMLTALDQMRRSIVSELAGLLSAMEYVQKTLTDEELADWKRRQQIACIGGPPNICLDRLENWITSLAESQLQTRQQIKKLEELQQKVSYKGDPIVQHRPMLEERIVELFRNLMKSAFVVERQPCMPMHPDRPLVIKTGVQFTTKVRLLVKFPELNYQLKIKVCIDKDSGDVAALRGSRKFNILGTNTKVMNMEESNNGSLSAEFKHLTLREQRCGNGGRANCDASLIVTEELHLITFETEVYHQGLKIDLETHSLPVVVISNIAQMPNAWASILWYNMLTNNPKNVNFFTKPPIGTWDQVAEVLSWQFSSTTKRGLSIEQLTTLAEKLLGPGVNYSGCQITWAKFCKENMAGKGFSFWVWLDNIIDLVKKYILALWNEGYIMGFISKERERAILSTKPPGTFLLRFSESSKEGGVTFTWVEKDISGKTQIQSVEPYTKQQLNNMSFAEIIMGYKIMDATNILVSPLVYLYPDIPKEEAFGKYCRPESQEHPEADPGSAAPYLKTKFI
T2 sequence (P40763 127-711): as the sequence (P40763 127-711 C468A) above, with A342C counted along it
T1 sequence (P42227 2-770 limits assumed): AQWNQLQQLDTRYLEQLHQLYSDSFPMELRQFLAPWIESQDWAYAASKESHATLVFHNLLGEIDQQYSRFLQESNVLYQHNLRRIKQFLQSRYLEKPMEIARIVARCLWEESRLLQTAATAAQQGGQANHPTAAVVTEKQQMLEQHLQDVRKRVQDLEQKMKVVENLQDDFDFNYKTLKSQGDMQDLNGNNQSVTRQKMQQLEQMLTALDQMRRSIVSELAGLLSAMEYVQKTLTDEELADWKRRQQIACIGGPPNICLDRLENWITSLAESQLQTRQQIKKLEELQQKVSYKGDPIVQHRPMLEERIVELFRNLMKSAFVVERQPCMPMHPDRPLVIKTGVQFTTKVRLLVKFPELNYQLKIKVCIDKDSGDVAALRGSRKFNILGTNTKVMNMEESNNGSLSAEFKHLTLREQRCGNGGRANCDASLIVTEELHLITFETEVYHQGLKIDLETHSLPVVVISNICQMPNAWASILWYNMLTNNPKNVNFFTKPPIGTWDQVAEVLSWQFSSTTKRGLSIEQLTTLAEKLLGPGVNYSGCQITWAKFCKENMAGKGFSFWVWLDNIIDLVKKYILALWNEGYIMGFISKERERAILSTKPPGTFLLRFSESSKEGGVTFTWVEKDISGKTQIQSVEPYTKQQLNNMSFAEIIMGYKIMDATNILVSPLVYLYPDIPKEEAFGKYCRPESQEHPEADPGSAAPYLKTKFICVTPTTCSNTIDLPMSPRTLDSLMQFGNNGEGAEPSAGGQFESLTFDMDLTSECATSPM
T1 sequence (P42225 2-749 partner limits assumed): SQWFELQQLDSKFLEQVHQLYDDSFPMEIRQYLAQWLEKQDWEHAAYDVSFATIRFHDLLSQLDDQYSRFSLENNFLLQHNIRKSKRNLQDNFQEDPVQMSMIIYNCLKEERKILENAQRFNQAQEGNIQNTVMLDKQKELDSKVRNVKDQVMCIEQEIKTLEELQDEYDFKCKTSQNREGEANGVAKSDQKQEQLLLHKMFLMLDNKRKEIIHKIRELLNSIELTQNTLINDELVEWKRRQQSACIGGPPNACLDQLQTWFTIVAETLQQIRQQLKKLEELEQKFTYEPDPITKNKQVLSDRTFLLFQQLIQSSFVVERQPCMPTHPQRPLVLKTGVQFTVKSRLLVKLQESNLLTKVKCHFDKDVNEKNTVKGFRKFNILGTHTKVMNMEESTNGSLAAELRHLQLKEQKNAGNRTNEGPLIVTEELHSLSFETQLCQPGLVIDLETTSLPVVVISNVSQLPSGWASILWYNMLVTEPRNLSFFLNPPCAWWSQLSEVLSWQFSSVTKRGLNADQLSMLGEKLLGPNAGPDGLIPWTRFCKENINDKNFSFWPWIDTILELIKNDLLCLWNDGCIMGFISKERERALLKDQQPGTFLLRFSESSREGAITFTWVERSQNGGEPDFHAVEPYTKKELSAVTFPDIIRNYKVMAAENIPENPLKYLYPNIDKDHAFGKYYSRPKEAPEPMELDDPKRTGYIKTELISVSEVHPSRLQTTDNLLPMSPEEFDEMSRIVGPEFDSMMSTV

Which results are given for O=C([C@H]1CCN1S(=O)(=O)c1c(F)c(F)c(F)c(F)c1F)N(Cc1ccc(C2CCCCC2)cn1)c1ccc2c(=O)[nH]ncc2c1 [Compound H182]?
pIC50 [1]: 5.47; ΔG [2]: -7.79 kcal/mol; ΔH [2]: -4.16 kcal/mol; −TΔS [2]: -3.63 kcal/mol; pKd ([2]; one-site model, 25 °C): 5.71; Effect on DNA-binding activity of pYStat3C468A (pYStat3C468A; 3 μM H182, 30 min): unaffected; Effect on pYStat3C468A activity (pYStat3C468A; 10 μM H182): no effect; pIC50 (pYStat3C468A; EMSA, 0–50 μM H182, 30 min): 4.40; inhibition at 10 µM ([3]; 10 μM H182): > 80%; pIC50 ([3]; SafetyScreen44 follow-up dose-response): 6.40
